# Read-outs that look alike come from different tables or passages of the source.
# Tests used:
# L929 cells = test: Cytotoxicity, neutral red assay; assay type: cell-based; conditions: for ratio of the well's OD compared to the OD of the negative control, Average (SD) (n = 2): 24 h, ratios ≦0.5 indicate a cytostatic effect
# Description: L929 cells grown to approximately 80% confluency in HGM-M were washed with Hanks, trypsonised to detach the cells from the flask, then diluted to 10^5 cells/ml in HGM-M and 200 μl used to inoculate the wells of a 96-well microtitre tray. After incubation for 24 h at 37° C., adherent cells were washed with Hanks and then 100 μl HGM-M was added to the wells. Fresh TSB007 master stock solution (10 mg/ml) was serially 10-fold diluted in HGM-M to make solutions of 1000, 100, 10 and 1 μg/ml of TSB007. To the wells of the microtitre tray, 100 μl of these TSB007 solutions were also added, giving final concentrations of 500, 50, 5 and 0.5 μg/ml of TSB007. The same dilutions of DMSO were prepared and tested to check that cytotoxic activity was not due to the DMSO. A negative control was prepared containing only HGM-M, and a positive control was prepared by adding 100 μl of carboplatin (10 mg/ml; Mayne Pharma Pty Ltd, Australia) to wells containing 100 μl HGM-M. Controls and dilutions of TSB007 and DMSO were prepared in duplicate.
# After 24 h shaking at 37° C., cytotoxicity was quantified using the neutral red assay. The cells were washed with Hanks then 200 μl HGM-M and 20 μl Neutral Red (3.3 g/L; Sigma-Aldrich) were added to each well. After 2 h shaking at 37° C., cells were washed twice with PBS then 200 μl of 1% acetic acid in 50% EtOH was added to each well to solubilise the stain. After 15 min shaking at 37° C. the OD690 nm of the wells was measured and subtracted from the OD540 nm. Results were then blanked against wells to which no cells had been added, and converted to a ratio of the OD of the negative control. Ratios […] indicated a cytostatic effect. Testing was performed on two separate occasions.
# [1] = system: Klebsiella edwardsii NCTC 10896; test: Disk diffusion; assay type: cell-based; conditions: 10 mg/ml, 20 μl
# E. coli NCTC 10418 = test: Broth microdilution MIC and MBC, expanded testing range; assay type: cell-based; conditions: Escherichia coli, NCTC10418; MHB, growth-method inoculum, range 1024 to 0.5 μg/ml
# Description: (§1) The method used was based on CLSI protocols for broth microdilution testing of these species. As recommended by CLSI, inocula were prepared by direct colony suspension, and the media used were cation-adjusted Mueller Hinton broth (CA-MHB) for Staphylococcus spp. and CA-MHB containing 5% lysed horse blood (CA-MHB+LHB) for Streptococcus spp. Briefly, 24 h blood agar plate (BA) cultures of Staphylococcus aureus strains NCTC 6571, ATCC 29213, ATCC 33592 (MRSA) and NCTC 10442 (MRSA), Staphylococcus epidermidis ATCC 29971, Staphylococcus xylosus ATCC 29971, Streptococcus pneumoniae strains ATCC 49619 and ATCC 6305, and Streptococcus pyogenes strains NCTC 8191 and NCTC 8302 were used to prepare 0.5 McFarland suspensions in saline. Two 640 μg/ml working stocks of TSB007 were prepared from a fresh master stock, one in CA-MHB for testing against the Staphylococcus spp. and the other in CA-MHB+LHB for testing against Streptococcus spp. The working stocks were further diluted 1/10 in these broths for adding to microtitre trays to test MICs of 32, 16, 8, 4, 2, 1, 0.5, 0.25, 0.125 and 0.06 μg/ml.
# (§2) The wells of two 96-well microtitre trays (one for Staphylococcus spp. and one for Streptococcus spp.) were filled with 100 μl of the appropriate broth, except for the first column. The last column, a sterility control containing no TSB007 or inoculum, was filled with an additional 100 μl broth. Then 100 μl of the 64 μg/ml TSB007 solution was added to the first two columns, the contents of column 2 was mixed, then 100 μl of this was used in two-fold serial dilutions along the rest of the tray except the last two columns. The final 100 μl was discarded. […] Finally, to the first 11 wells of one row per strain, 100 μl of a 10^−2 dilution (in the appropriate broth) of the 0.5 McFarland suspension was added. The microtitre trays were then incubated at 35° C. for 24 h before the MICs were read visually. Wells were further subcultured (10 μl drop onto BA then incubated at 35° C. for 24 h) and colonies subsequently counted to determine minimum bactericidal concentrations (MBCs). The concentration of the initial inoculum was confirmed on BA by counting colonies from 2×10 μl spots of 10^−5 dilutions of the 0.5 McFarland suspensions. Testing was performed on two separate occasions.
# (§3) The method described above, with some modifications, was used to determine the MIC and MBC for S. aureus NCTC 6571 and E. coli NCTC 10418. Concentrations of the compound were previously too low to determine the MBC of this S. aureus strain. Modifications were the use of Mueller-Hinton broth (MHB) instead of CA-MHB, the preparation of bacterial inoculum by the growth method instead of direct colony suspension, and the use of more concentrated working stocks and test concentrations of TSB007. […]
# S. aureus NCTC 6571 = test: as above; assay type: cell-based; conditions: Staphylococcus aureus, NCTC6571; MHB, growth-method inoculum, range 1024 to 0.5 μg/ml
# Description: as §1, §2, §3
# [2] = system: Escherichia coli NCTC 10538; test: Disk diffusion; conditions: 10 mg/ml, 20 μl; repeat; value printed with '?'
# [3] = system: Moraxella catarrhalis NCTC 3625; test: Disk diffusion; conditions: 10 mg/ml, 20 μl; repeat, strain NCTC 3625
# [4] = system: Salmonella enterica subsp. enterica serovar Typhimurium ATCC 13311; test: Disk diffusion; conditions: 10 mg/ml, 20 μl; repeat
# [5] = system: Yersinia enterocolitica clinical 26609; test: Disk diffusion; conditions: 10 mg/ml, 20 μl; repeat, strain clinical 26609
# [6] = system: Enterococcus faecalis NCTC 775; test: Disk diffusion; conditions: 10 mg/ml, 20 μl
# [7] = system: Staphylococcus epidermidis ATCC 12228; test: Disk diffusion; conditions: for zone of inhibition at 10000 µg/mL: Staphylococcus epidermidis
smiles,measurement,setting,value
O=C(O)c1ccc(/C=C/c2cc(/C=C/c3ccc(C(=O)O)cc3)cc(/C=C/c3ccc(C(=O)O)cc3)c2)cc1 [TSB007],"ratio of the well's OD compared to the OD of the negative control, Average (SD) (n = 2)",L929 cells; 0.5 μg/ml,0.846 (0.285)
same,"ratio of the well's OD compared to the OD of the negative control, Average (SD) (n = 2)",L929 cells; 5 μg/ml,0.882 (0.021)
same,"ratio of the well's OD compared to the OD of the negative control, Average (SD) (n = 2)",L929 cells; 50 μg/ml,0.867 (0.030)
same,cytostatic effect on L929 cells,L929 cells; 500 μg/ml,cytostatic
same,"ratio of the well's OD compared to the OD of the negative control, Average (SD) (n = 2)",L929 cells; 500 μg/ml,0.384 (0.009)
same,cytostatic effect on L929 cells,L929 cells; 0.5-50 μg/ml,not significantly cytostatic
same,"Zone diameters, Repeat Results",[1],9 trim
same,MBC,E. coli NCTC 10418,> 1020 µg/mL
same,MIC,E. coli NCTC 10418,512 µg/mL
same,MBC,S. aureus NCTC 6571,128 to 256 µg/mL
same,MIC,S. aureus NCTC 6571,2 µg/mL
same,"Zone diameters, Repeat Results",[2],7.5? trim
same,"Zone diameters, Repeat Results",[3],36 trim
same,"Zone diameters, Repeat Results",[4],11 trim
same,"Zone diameters, Repeat Results",[5],8 trim
same,"Zone diameters, 24 h TSB007",[6]; 24 h,10 trim
same,"Zone diameters, 48 h TSB007",[6]; 48 h,10 trim
same,"Zone diameters, Repeat Results",[6]; repeat,8 trim
same,"Zone diameters, 24 h TSB007","[7]; 10 mg/ml, 20 μl, 24 h",22 trim
same,"Zone diameters, 48 h TSB007","[7]; 10 mg/ml, 20 μl, 48 h",22 trim
same,"Zone diameters, Repeat Results","[7]; 10 mg/ml, 20 μl, repeat",20 trim
same,zone of inhibition at 10000 µg/mL,"[7]; ATCC12228, 24 h, read-out: Zone diameters, 24 h AnO2",22 mm
same,zone of inhibition at 10000 µg/mL,"[7]; ATCC12228, 24 h, read-out: Zone diameters, 24 h O2",18 mm
same,zone of inhibition at 10000 µg/mL,"[7]; ATCC12228, 48 h, read-out: Zone diameters, 48 h AnO2",22 mm
same,zone of inhibition at 10000 µg/mL,"[7]; ATCC12228, 48 h, read-out: Zone diameters, 48 h O2",18 mm

# Reference: patent publication US9738591B2, “Antimicrobial compounds” (priority 2009, dated 2017)
